Values after ≈ are worked out from the molar mass of the structure shown.
Key:
Caenorhabditis elegans = details: cited from earlier work
Meloidogyne incognita = details: cited from earlier work
[1] = tested on: non-target nematodes versus targeted PPNs; assay: Selectivity index, non-target nematodes over targeted PPNs; details: 24 h LC50
Experimental: The selectivity index of a given SM was calculated by dividing the averages of the LC50 or EC50 values obtained against each of the selected non-target nematodes by the LC50 or the EC50 values observed for each of the targeted PPN tested.

in vitro = assay: in vitro
Description: The non-target species, C. elegans wild-type strain N2 Bristol (courtesy of Dr. G.L. Sutphin, University of Arizona) and Rhabditis blumi DF5010 (Caenorhabditis Genetics Center, University of MN, USA) were maintained in vitro in nematode growth medium (NGM) agar plates seeded with Escherichia coli (Migula) Castellani and Chalmers, strain OP-50, as described previously ([52]). Mixed juveniles and hermaphrodites (5 to 6 days old) were collected from the culture plates prior to the bioassays. Infective third-stage juveniles (IJs) of three non-target entomopathogenic nematode species (H. sonorensis Caborca strain, H. bacteriophora TT01 strain, and Steinernema carpocapsae All strain) were also maintained by rearing them in vivo using wax moth larvae (Galleria mellonella) as the host, according to procedures described previously ([53]), and collected for bioassays within 2 to 4 days of their emergence from nematode-infected cadavers. Nematode population density (number of nematodes per ml) was standardized prior to setting up well-plate bioassays, by adjusting each nematode suspension to a concentration of 100 nematodes in 20 μL of distilled water.
(§1) Twelve-well tissue culture plates were used as the experimental arena. For each of the tested nematode species, an inoculum of 100 nematodes, suspended in 20 μL distilled water, was added to each well. […] For PPA (Enamine) and indole (Alfa Aesar), 13 incremental concentrations were tested ranging from 10 to 400 μg/mL in 1 mL of distilled water (DMSO ≤ 1%; vol/vol). […] Distilled water with 1% DMSO was used as the negative control. To measure the combined nematicidal effects of the three SMs, equal concentrations of two or three SMs were mixed in 1:1 or 1:1:1 mixture. For example, a 20 μg/mL solution of a two-SM mixture contained 20 μg from metabolite A and 20 μg metabolite B, dissolved in 1 mL distilled water. Individual or combined SMs from 10 μg/mL to 200 μg/mL (in 20 μg/ml increments) were prepared in distilled water (DMSO ≤ 1%; vol/vol) and used for the bioassays.
(§2) The well plates were covered with their lids and incubated at 25°C in the dark. For the targeted nematode species, nematicidal activity was recorded at 24 h, 48 h, and 72 h after initial exposure to the individual SMs. For the non-target species, data were only recorded at 24 h after initial exposure to the individual SMs. For SM mixtures, mortality was recorded 24 h after initial exposure of the targeted nematode species. Nematodes were probed with a needle to assess if they were alive, dead, or paralyzed. […] Those nematodes that resumed activity upon probing were considered to suffer from temporary paralysis (impaired motility). Paralyzed nematodes were rinsed at least three times in distilled water and held for an additional 24 h to check for their recovery from temporarily paralysis. […] Experiments were repeated at least three times per treatment for each concentration tested.
(§3) For the toxicity data visualization, the relationship between percent mortality or temporary paralysis and metabolite concentration were described by a sigmoidal curve, which was fitted by the logistical function using the statistical software package SigmaPlot for Windows, version 14.0 (Systat Software Inc.). […] Concentration-response data of single metabolites or SM mixtures were pooled for each concentration and subjected to probit regression analysis using the Polo Plus program (LeOra Software). The LC or EC values, along with the corresponding 95% confidence intervals, were estimated for each single SM or SM mixture at each exposure time, depending on the experimental setting.

[2] = In vitro nematicidal assay, values summarised over the non-target nematodes; format: cell-based; details: non-target nematodes in 12-well tissue culture plates; 24 h exposure; species for which an LC50 was established; read-out: LC50 values, range over non-target nematodes
[3] = tested on: Tylenchulus semipenetrans J2 juveniles; assay: microbe, parasite or virus in culture; details: mortality
Description: (§4) Only soil inhabiting (free-living or infective) stages of target and non-target nematode species were considered in the present study. All nematode cultures (except T. semipenetrans) were maintained in the Stock laboratory (University of Arizona). M. incognita was reared in planta using susceptible tomato plants (cv. Roma VF; seedlings with five or six true leaves; courtesy of Dr. J. Brown, University of Arizona). Eggs of M. incognita were extracted from infected tomato plant roots, and J2 were collected after hatching, following the procedures of Atamian et al. ([50]). T. semipenetrans was isolated from infested lemon orchards at the Yuma Agricultural Center, University of Arizona (Yuma, AZ, USA). Eggs of T. semipenetrans were extracted from infected lemon tree roots using the procedures of El-Borai et al. ([51]), and J2 were collected using the same procedure as that described for M. incognita.
as §1, §2, §3

[4] = tested on: Meloidogyne incognita J2 juveniles; assay: microbe, parasite or virus in culture; details: for LC50 / LC10 / LC25 / LC90: mortality
Description: as §4, §1, §2, §3

[5] = tested on: HFF cells (human foreskin cells); assay: MTT cytotoxicity assay; format: cell-based; details: tested at 50, 100, 200 μM, data not shown
Experimental: (§5) The non-cancerous HFF cells (human foreskin cells) and three human cancer cell lines, NCI-H460 (non-small cell lung cancer), SF-268 (central nervous system glioma), and MCF-7 (breast cancer) were used to evaluate the in vitro cytotoxicity of the isolated Photorhabdus SMs. The MTT (3-(4,5-dimethylthiazol-2-yl)-2,5-diphenyltetrazolium bromide) colorimetric method ([54]) was used with doxorubicin as the positive control, and DMSO as the negative control. Photorhabdus SMs were tested at 50, 100, and 200 μM concentrations, and the assays were repeated three times.

[6] = tested on: NCI-H460 (non-small cell lung cancer); assay: MTT cytotoxicity assay; format: cell-based, human; details: tested at 50, 100, 200 μM, data not shown
Experimental: as §5

[7] = tested on: SF-268 (central nervous system glioma); assay: MTT cytotoxicity assay; format: cell-based, human; details: tested at 50, 100, 200 μM, data not shown
Experimental: as §5

MCF-7 (breast cancer) = assay: MTT cytotoxicity assay; format: cell-based, human; details: tested at 50, 100, 200 μM, data not shown
Experimental: as §5

| SMILES | LC10 ([3]; 24 h exposure) | LC25 ([3]; 24 h exposure) | LC90 ([3]; 24 h exposure) | LC10 ([3]; 48 h exposure) | LC25 ([3]; 48 h exposure) | LC90 ([3]; 48 h exposure) | LC25 ([3]; 72 h exposure) | LC90 ([3]; 72 h exposure) | LC10 ([4]; 24 h exposure) | LC25 ([4]; 24 h exposure) | LC90 ([4]; 24 h exposure) | LC10 ([4]; 48 h exposure) | LC25 ([4]; 48 h exposure) | LC90 ([4]; 48 h exposure) | LC25 ([4]; 72 h exposure) | LC90 ([4]; 72 h exposure) | other results |
| --- | --- | --- | --- | --- | --- | --- | --- | --- | --- | --- | --- | --- | --- | --- | --- | --- | --- |
| CC(C)c1c(O)cc(C=Cc2ccccc2)cc1O [3,5-dihydroxy-4-isopropylstilbene] |  |  |  |  |  |  |  |  |  |  |  |  |  |  |  |  | Toxicity to non-target bacterivorous nematode (Caenorhabditis elegans): toxic at similar concentrations (up to 100 μg/ml); Nematicidal activity (Meloidogyne incognita): no activity |
| O=C(O)CC/C=C/c1ccccc1 [PPA, (4E)-5-phenylpent-4-enoic acid] | 50.8 (27.0, 60.5) μg/mL | 57.6 (36.6, 66.0) μg/mL | 86.4 (78.2, 109.0) μg/mL | 42.7 (31.2, 50.0) μg/mL | 50.1 (39.8, 56.6) μg/mL | 83.7 (76.3, 96.6) μg/mL | 28.0 (8.0, 42.7) μg/mL | 92.4 (60.6, 312.0) μg/mL | 29.4 (22.1, 34.6) μg/mL | 35.8 (29.0, 40.5) μg/mL | 66.9 (61.4, 75.5) μg/mL | 27.6 (19.0, 33.3) μg/mL | 33.6 (25.7, 39.0) μg/mL | 63.9 (57.2, 75.9) μg/mL | 30.7 (22.0, 36.6) μg/mL | 61.0 (52.7, 76.5) μg/mL | Selectivity index (LC50 for the non-target nematodes over those for the targeted PPNs) [1]: 6 to 8; LC50 at 24 h (in vitro; All, Steinernema carpocapsae): > 400 µg/mL; LC50 at 24 h (in vitro; Caborca, Heterorhabditis sonorensis): > 400 µg/mL; LC50 at 24 h (in vitro; DF5010, Rhabditis blumi): 346 µg/mL (≈ 1960 µM); LC50 at 24 h (in vitro; N2 Bristol, Caenorhabditis elegans): 278 µg/mL (≈ 1580 µM); LC50 at 24 h (in vitro; TT01, Heterorhabditis bacteriophora): > 400 µg/mL; LC50 at 24 h [2]: 278 to 421 µg/mL (≈ 1580 to 2390 µM); LC50 ([3]; Tylenchulus semipenetrans, 24 h, 24 h exposure): 66 µg/mL (≈ 375 µM); LC50 ([3]; Tylenchulus semipenetrans, 48 h, 48 h exposure): 59.8 µg/mL (≈ 339 µM); LC50 ([3]; Tylenchulus semipenetrans, 72 h, 72 h exposure): 42.2 µg/mL (≈ 239 µM); LC50 ([3]; 24 h exposure): 66.3 µg/mL (≈ 376 µM); LC10 ([3]; 72 h exposure): 19.3 (3.06, 31.9) μg/mL; Reduction of LC50 for M. incognita versus T. semipenetrans ([4]; 24 h postexposure): 33%; LC50 ([4]; Meloidogyne incognita, 24 h, 24 h exposure): 44 µg/mL (≈ 250 µM); LC50 ([4]; Meloidogyne incognita, 48 h, 48 h exposure): 42 µg/mL (≈ 238 µM); LC50 ([4]; Meloidogyne incognita, 72 h, 72 h exposure): 38.9 µg/mL (≈ 221 µM); LC50 ([4]; 24 h exposure): 44.4 µg/mL (≈ 252 µM); LC10 ([4]; 72 h exposure): 24.8 (16.0, 31.0) μg/mL |
| O=C(O)/C=C/c1ccccc1 [t-CA, trans-cinnamic acid] | 53.1 (41.2, 61.2) μg/mL | 62.8 (52.2, 70.0) μg/mL | 108.0 (100.0, 121.0) μg/mL | 51.5 (39.7, 59.1) μg/mL | 60.0 (49.6, 66.6) μg/mL | 98.0 (90.7, 110.0) μg/mL | 54.9 (44.4, 61.8) μg/mL | 95.8 (88.2, 108.0) μg/mL | 42.7 (25.6, 52.2) μg/mL | 53.0 (38.0, 61.6) μg/mL | 106.0 (89.6, 159.0) μg/mL | 37.3 (19.1, 47.2) μg/mL | 45.7 (29.0, 55.1) μg/mL | 87.9 (73.0, 137.0) μg/mL | 45.2 (37.7, 50.4) μg/mL | 69.7 (62.6, 82.9) μg/mL | In vitro cytotoxicity: none even at the highest concentration tested [5]: > 200 µM; In vitro cytotoxicity: none even at the highest concentration tested [6]: > 200 µM; In vitro cytotoxicity: none even at the highest concentration tested [7]: > 200 µM; In vitro cytotoxicity: none even at the highest concentration tested (MCF-7 (breast cancer)): > 200 µM; Reduction of the LC90 at 72 h versus 24 h ([4]; M. incognita): 34% |

Source: paper PMC8826726, “Selective Toxicity of Secondary Metabolites from the Entomopathogenic Bacterium Photorhabdus luminescens sonorensis against Selected Plant Parasitic Nematodes of the Tylenchina Suborder” (Microbiology Spectrum, 2022)
